Assay results reported in publication PMC6588697, “Lugdunin amplifies innate immune responses in the skin in synergy with host- and microbiota-derived factors” (Nature Communications, 2019).
“And” between values parts separate entries of the source, which are not always exact repeats. Equal values may be shown once.

Test system: PHKs
Assay: Cytokine release into PHK supernatant (LEGENDplex / ELISA)
Assay type: cell-based, human
Conditions: 5 h, lugdunin 2 µM or Pam2Cys 100 ng/mL, two technical replicates
Protocol: Fig. 1 Lugdunin sensitizes epithelial cells for innate immune defense. a Primary human keratinocytes (PHKs) were pretreated with S. epidermidis conditioned medium (CM), indicated lugdunin concentrations, or the combination of both for 20 h. Subsequently, cells were infected with S. aureus for 1.5 h followed by cell lysis and determination of colony-forming units (CFUs). Shown is one representative experiment of three independent experiments with six technical replicates ± s.e.m. n.s., not significant. b Dorsal skin of mice was pretreated with S. epidermidis CM, 1.5 µg lugdunin alone or in combination with S. epidermidis CM for 24 h. Subsequently, S. aureus CFUs were determined. Horizontal lines represent the mean of each group ± s.e.m. c PHKs were treated with 2 μM lugdunin or with S. epidermidis CM alone or in combination for 20 h and subsequently expression of indicated antimicrobial peptides (AMPs) (respective protein names in brackets) was analyzed and normalized to actin. Shown is one representative experiment of three independent experiments with two technical replicates ± s.e.m. d PHKs were treated with 2 µM lugdunin or 100 ng/mL Pam2Cys for 5 h and subsequently the concentration of indicated cytokines in the supernatant was analyzed by LEGENDplex^TM (BioLegend). Shown is one representative experiment of three independent experiments with two technical replicates ± s.e.m. e PHKs were treated with increasing concentrations of lugdunin or 100 ng/mL Pam2Cys or Pam3Cys for 5 h and subsequently expression of chemokine (C-X-C motif) ligand 8 (CXCL8) was analyzed and normalized to actin. Shown is one representative experiment of three independent experiments, each with two technical replicates ± s.e.m. f, g Indicated cells were treated with 2 µM lugdunin or 100 ng/mL Pam2Cys as a positive control for 5 h and subsequently the concentration of CXCL8 (f) and interleukin-1α (IL-1α) (g) in the supernatant was analyzed by LEGENDplex^TM (BioLegend) and enzyme-linked immunosorbent assay (ELISA) (R&D Systems). Shown is one representative experiment of three independent experiments with two technical replicates ± s.e.m. Significant differences to control treatments were analyzed by ordinary one-way analysis of variance (ANOVA) followed by Dunnett’s multiple comparisons test (*P < 0.05; **P < 0.01; ***P < 0.001; ****P < 0.0001). n.d. = not detected. Source data are provided as a Source Data file
For cytokine analysis from cell cultures, 10 µL of supernatant was used for cytokine analysis via the LEGENDplex^TM human inflammation panel (BioLegend). For cytokine analysis from mouse skin, 4 mm skin punches were cultured in an airlift system where only the dermis had access to medium for 10 h. Skin punches were cultured in RPMI containing 1% FCS (Biochrom/Merck Millipore), 1% penicillin and streptomycin (Gibco/Life Technologies) and 0.25 µg/mL amphotericin B (CELLnTEC). Ten microliters of a 3-fold dilution of culture supernatant was used for cytokine analysis via the LEGENDplex^TM mouse inflammation panel (BioLegend). Samples were acquired in duplicates using a BD LSRII flow cytometer (BD Biosciences) and LEGENDplex^TM Software (BioLegend).
For IL-1α analysis, 100 µL of cell culture supernatant was analyzed via ELISA (R&D Systems) according to manufacturer’s instruction. For MIP-2 analysis, 100 µL of a 5-fold dilution from skin cultures supernatant was used and analyzed via ELISA (R&D Systems) according to the manufacturer’s instruction. For LL-37 ELISA, ELISA plates (Nunc) were coated overnight at 4 °C with 100 µL of cell culture supernatant or 2-fold dilutions of LL-37 starting from 8 µg/mL. The next day, the plate was washed three times using PBS + 0.5% BSA + 0.05% Triton X-100, followed by incubation with 100 µL primary antibody against hCAP18/LL-37 (HycultBiotech, Cat#HM2071, 1:120 in PBS + 0.5% BSA + 0.05% Triton X-100) at 37 °C for 1 h. […]

## Lugdunin
LEGENDplex, Fig 1d
  CXCL8 concentration in supernatant: 62.009 and 63.022
Fig 1f
  CXCL8 concentration in supernatant: 186.026 and 189.663
Fig 1d
  IFN concentration in supernatant (first line IFN, r44): 0.000
  IFN concentration in supernatant (second line IFN, r45): 0.000
  IL-1 concentration in supernatant (first line IL-1, r43): 0.000
  IL-1 concentration in supernatant (second line IL-1, r47): 0.000
  IL-6 concentration in supernatant: 0.000
  IL-10 concentration in supernatant: 0.000
  IL-12p70 concentration in supernatant: 0.000
  IL-18 concentration in supernatant: 0.000
  IL-23 concentration in supernatant: 0.000
  IL-33 concentration in supernatant: 0.000
  MCP-1 concentration in supernatant: 219.647 and 222.665
  TNF concentration in supernatant: 0.000
